Patent US20110251175A1, “Stigmine Conjugates for Substance Use Disorders” (priority 2008, published 2011)
Read-outs that look alike come from different tables or passages of the source.

Experiments:
BuChE = BuChE (Homo sapiens, UniProt P06276); assay: In vitro screening assay, BuChE inhibition; type: biochemical
Text: An in vitro screening assay with various conjugates was completed according to the methods described in Ellman G L et al., Biochem Pharmacol., 7:88-95 (1961) and in Nadarajah B, J. Anal. Toxicol., 16:192-193 (1992), both of which are herein incorporated by reference in their entireties. The assay method was completed according to the following: […]

[1] = test system: male CD IGS (Sprague Dawley derived) rats; assay: Measurement of hypothermia (marker of CNS penetration for AChE inhibitors); type: in vivo; details: Rattus norvegicus, sc, read-out: Hypothermia MED (mg/kg)
Procedure: The induction of hypothermia was determined for compounds of the invention according to the methods described in Freedman, et al., European Journal of Pharmacology, 187 (1990), 193-199, which is incorporated by reference herein. Hypothermia is a marker of CNS penetration for AChE inhibitors.
The dose range and time course for cholinergic effects of the compounds of the invention was determined as described below. • Subjects: Two hundred eight male CD IGS (Sprague Dawley derived) rats were received at 126-150 grams and maintained four per cage on a regular light/dark cycle (lights on 0600-1800) with ad libitum food and water for about 1 week before commencement of experimentation. • Apparatus: Injections were made subcutaneously (s.c.) with a 25-gauge needle on a 1-mL tuberculin syringe. Observations were made in a 5½×10-inch polycarbonate rat housing cage. […]
Test Compounds were dosed at 1, 3, 10, 30, and 100 mg/kg • Procedure: The rats were brought to the test room in the home cage. Baseline temperatures were measured just before injection. […] At 0.5, 1, 2, and 4 hours after injection, it was observed briefly for gross signs; salivation was scored as absent, clearly present, or copious; and rectal temperature was taken. […] Salivation score and temperature were determined within this constraint, but only the most salient of gross signs were noted. […]

[2] = test system: male CD IGS (Sprague Dawley derived) rats; assay: Dose range for cholinergic effects / max tolerated dose; details: for TIMTD/ MED: ratio of max tolerated dose to hypothermia MED, rats s.c.
Procedure: The dose range and time course for cholinergic effects of the compounds of the invention was determined as described below. • Subjects: Two hundred eight male CD IGS (Sprague Dawley derived) rats were received at 126-150 grams and maintained four per cage on a regular light/dark cycle (lights on 0600-1800) with ad libitum food and water for about 1 week before commencement of experimentation. • Apparatus: Injections were made subcutaneously (s.c.) with a 25-gauge needle on a 1-mL tuberculin syringe. Observations were made in a 5½×10-inch polycarbonate rat housing cage. Temperature was taken with a rat rectal probe on a Model BAT-12 electronic thermometer. • Compound Preparation: Test compounds were dissolved for example, in 0.9% saline. […] Injection volumes were 1 mL/kg, if the test compound was sufficiently soluble. If less soluble, maximum injection volume were 5 mL/kg.
Test Compounds were dosed at 1, 3, 10, 30, and 100 mg/kg • Procedure: The rats were brought to the test room in the home cage. Baseline temperatures were measured just before injection. After injection s.c., the rat was placed in the observation cage. At 0.5, 1, 2, and 4 hours after injection, it was observed briefly for gross signs; salivation was scored as absent, clearly present, or copious; and rectal temperature was taken. In observation for gross signs, special attention was paid to fasciculation (muscle twitch), tremor/ataxia, and abnormal gait. The experiment was designed to allow assessment of one rat per time point per minute. Salivation score and temperature were determined within this constraint, but only the most salient of gross signs were noted. After the 4-hour observation point, or sooner if signs of distress were observed, the rat was euthanized by CO2 inhalation. • Data Analysis: Gross signs, salivation score, and temperature at each time point were tabulated for inspection. This is a combination of within-subject design for control and between-subjects design for dose effect. That is, the effect of the compound was measured against the reading taken immediately before injection, and the difference between doses of the compound was measured between groups of three rats.

[3] = biological target: T1, human recombinant acetylcholinesterase (Homo sapiens, UniProt P22303); assay: biochemical; details: human recombinant AChE, 25° C., 30 minutes preincubation, Dixon plot
T1 construct: purchased Sigma Chemical Co (St. Louis, Mo.) C1682

rats = assay: Methamphetamine drug discrimination test
[4] = biological target: T2, AChE (Human recombinant HEK-293 cells) (Homo sapiens, UniProt P22303); type: biochemical
T2 construct: host or cells: HEK-293 cells (expression host as printed)
T2 sequence (P22303 32-614): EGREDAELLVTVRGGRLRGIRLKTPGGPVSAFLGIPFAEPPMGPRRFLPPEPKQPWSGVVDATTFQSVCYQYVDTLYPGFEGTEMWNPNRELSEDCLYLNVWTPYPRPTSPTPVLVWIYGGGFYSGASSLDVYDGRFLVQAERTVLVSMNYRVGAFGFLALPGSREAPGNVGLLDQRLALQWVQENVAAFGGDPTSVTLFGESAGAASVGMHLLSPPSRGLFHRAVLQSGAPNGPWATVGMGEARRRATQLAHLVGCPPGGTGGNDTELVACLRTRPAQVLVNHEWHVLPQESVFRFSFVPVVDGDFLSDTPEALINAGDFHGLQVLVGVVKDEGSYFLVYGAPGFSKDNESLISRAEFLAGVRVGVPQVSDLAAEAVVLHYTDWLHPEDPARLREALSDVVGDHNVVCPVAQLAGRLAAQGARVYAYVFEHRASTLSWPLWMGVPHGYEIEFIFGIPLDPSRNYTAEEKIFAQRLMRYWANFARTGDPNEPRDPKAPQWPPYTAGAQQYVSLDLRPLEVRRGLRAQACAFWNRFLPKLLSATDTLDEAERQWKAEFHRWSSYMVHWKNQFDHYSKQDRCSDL

Chain of BuChE (P06276 29-602): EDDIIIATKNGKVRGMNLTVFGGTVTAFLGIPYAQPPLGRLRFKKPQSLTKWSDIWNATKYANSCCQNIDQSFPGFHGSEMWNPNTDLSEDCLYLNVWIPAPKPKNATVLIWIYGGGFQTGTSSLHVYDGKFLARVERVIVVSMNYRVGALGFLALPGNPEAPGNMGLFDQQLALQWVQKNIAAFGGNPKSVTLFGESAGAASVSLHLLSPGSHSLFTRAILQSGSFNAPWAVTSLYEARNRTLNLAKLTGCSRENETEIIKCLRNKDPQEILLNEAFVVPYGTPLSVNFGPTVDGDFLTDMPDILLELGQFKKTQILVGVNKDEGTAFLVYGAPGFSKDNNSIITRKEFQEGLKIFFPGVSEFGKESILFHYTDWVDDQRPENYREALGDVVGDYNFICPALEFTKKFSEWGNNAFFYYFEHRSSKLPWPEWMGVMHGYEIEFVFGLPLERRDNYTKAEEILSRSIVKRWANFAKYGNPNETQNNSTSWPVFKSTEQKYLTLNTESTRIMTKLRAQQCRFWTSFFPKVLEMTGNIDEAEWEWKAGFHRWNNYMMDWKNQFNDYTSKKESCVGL
T1 sequence (P22303 32-614): as the sequence (P22303 32-614) above

`C[C@@H](c1cccc(OC(=O)N(C)CCC=C2c3ccccc3CCc3ccccc32)c1)N(C)C` [Compound 5A, S-riva-nortriptyline] was tested, and the “BuChE I (%) 10 μM” value (BuChE; 10 μM) was 55%, the minimal effective dose [1] was at most 1 mg/kg and the “TIMTD/ MED” value [2] was “≧100”. For the same molecule, the “Max Tolerated Dose” value ([2]; rats, s.c., test doses given in mg/kg) was “≧100”.
`C[C@@H](c1cccc(OC(=O)N(C)CCCN2c3ccccc3CCc3ccccc32)c1)N(C)C` [Compound 4A, S-riva-desipramine] was tested, and the “BuChE I (%) 10 μM” value (BuChE; 10 μM) was 60% and the “TIMTD/ MED” value [2] was “≧30”.
In the case of `C#CCN(C(=O)Oc1ccc2c(c1)[C@]1(C)CCN(C)[C@@H]1N2C)[C@H](C)Cc1ccccc1` [Compound 18, Physo-desmethylselegiline], the “BuChE I (%) 10 μM” value (BuChE; 10 μM) is reported as 8%.
In the case of `C[C@@H](c1cccc(OC(=O)N(C)[C@@H](C)Cc2ccccc2)c1)N(C)C` [Compound 13, S-riva-d-methamphetamine], the IC50 [3] is reported as 5.44 µM.
In the case of `C[C@@H](c1cccc(OC(=O)N2CC[C@@H](c3ccc(F)cc3)[C@H](COc3ccc4c(c3)OCO4)C2)c1)N(C)C` [Compound 9A, S-riva-paroxetine], the “BuChE I (%) 10 μM” value (BuChE; 10 μM) is reported as 4%.
For `C[C@@H](Cc1ccccc1)NC(=O)Oc1cccc([C@H](C)N(C)C)c1` [Compound 20, S-riva-d-amphetamine], the IC50 [3] was 0.449 µM.
In the case of `CC(CC1CCCCC1)N(C)C(=O)Oc1cccc([C@H](C)N(C)C)c1` (stereo partly shown) [Compound 16, S-riva-propylhexedrine], the “TIMTD/ MED” value [2] is reported as “≧10”.
`C#CCN(C(=O)Oc1cccc([C@@H](C)N(C)C)c1)[C@H](C)Cc1ccccc1` [Compound 17, R-riva-desmethylselegiline] was tested, and the “BuChE I (%) 10 μM” value (BuChE; 10 μM) was 12%.
`Cc1ccccc1O[C@H](CCN(C)C(=O)Oc1cccc([C@H](C)N(C)C)c1)c1ccccc1` [Compound 5, S-riva-atomoxetine] was tested, and the “BuChE I (%) 10 μM” value (BuChE; 10 μM) was 14%.
For `CCN(C)C(=O)Oc1cccc([C@H](C)N(C)C)c1` [Compound 1, S-rivastigmine, reference compound], the “BuChE I (%) 10 μM” value (BuChE) was 100%.
`C[C@@H](c1cccc(OC(=O)N(C)CCCC2c3ccccc3C=Cc3ccccc32)c1)N(C)C` [Compound 6A, S-riva-protriptyline] was tested, and the “BuChE I (%) 10 μM” value (BuChE; 10 μM) was 53% and the “TIMTD/ MED” value [2] was over 1.
In the case of `C#CCN(C(=O)Oc1cccc([C@H](C)N(C)C)c1)[C@H](C)Cc1ccccc1` [Compound 11, S-riva-desmethylselegiline], the “BuChE I (%) 10 μM” value (BuChE; 10 μM) is reported as 17%.
For `C[C@@H](c1cccc(OC(=O)N(C)CC[C@H](Oc2cccc3ccccc23)c2cccs2)c1)N(C)C` [Compound 10A, S-riva-duloxetine], the “BuChE I (%) 10 μM” value (BuChE; 10 μM) was 36%.
In the case of `C[C@@H](c1cccc(OC(=O)N[C@H]2C[C@@H]2c2ccccc2)c1)N(C)C` (stereo in doubt) [Compound 2, S-riva-tranylcypromine], the “BuChE I (%) 10 μM” value (BuChE; 10 μM) is reported as 67% and the “TIMTD/ MED” value [2] is reported as 3.
`C[C@@H](c1cccc(OC(=O)N(C)CCC(Oc2ccc(C(F)(F)F)cc2)c2ccccc2)c1)N(C)C` (stereo partly shown) [Compound 7A, S-riva-fluoxetine] was tested, and the “BuChE I (%) 10 μM” value (BuChE; 10 μM) was 15% and the “TIMTD/ MED” value [2] was “≧30”.
With `C[C@H](Cc1ccccc1)N(C)C(=O)Oc1cccc([C@H](C)N(C)C)c1` [Compound 7, S-riva-l-methamphetamine] the “generalization to methamphetamine (lever selection)” value (rats; rats trained to discriminate methamphetamine from vehicle, compound 7 at 0.01-3.2 mg/kg i.p., FIG. 1 top) was “lack of stimulus generalization to methamphetamine”, the behavioral disruption (rats; rats, 1.0 mg/kg of compound 7, FIG. 2 lower) was “without behavioral disruption” and the rate of responding (rats; rats, compound 7 at 0.01-3.2 mg/kg i.p., FIG. 1 lower) was “markedly decreased reponse rates”.
With `COc1ccccc1CC(C)N(C)C(=O)Oc1cccc([C@H](C)N(C)C)c1` (stereo partly shown) [Compound 15, S-riva-methoxyphenamine] the “BuChE I (%) 10 μM” value (BuChE; 10 μM) was 30%.
With `CN1CC[C@@]2(C)c3cc(OC(=O)Nc4ccccc4)ccc3N(C)[C@@H]12` [Phenserine, reference compound] the “BuChEI (%) 1 μM” value [4] was 93% and the “BuChE I (%) 10 μM” value (BuChE) was 42%.
For `COCCCC/C(=N\OCCNC(=O)Oc1cccc([C@H](C)N(C)C)c1)c1ccc(C(F)(F)F)cc1` [Compound 8A, S-riva-fluvoxamine], the “BuChE I (%) 10 μM” value (BuChE; 10 μM) was 6%.
For `C[C@@H](c1cccc(OC(=O)N2CCN(C3=Nc4ccccc4Oc4ccc(Cl)cc43)CC2)c1)N(C)C` [Compound 3, S-riva-amoxapine], the “BuChE I (%) 10 μM” value (BuChE; 10 μM) was 6% and the “TIMTD/ MED” value [2] was “≧10”.
